In ChEMBL document CHEMBL1143900, “Tetrazole-biarylpyrazole derivatives as cannabinoid CB1 receptor antagonists” (Bioorg Med Chem Lett, 2008) one finds IC50 and Ratio IC50 data, which are given here for 16 compounds.

SMILES strings stand for the structures. Bounds are passed on as bounds.

Cannabinoid receptor 2, sequence (P34972 whole entry): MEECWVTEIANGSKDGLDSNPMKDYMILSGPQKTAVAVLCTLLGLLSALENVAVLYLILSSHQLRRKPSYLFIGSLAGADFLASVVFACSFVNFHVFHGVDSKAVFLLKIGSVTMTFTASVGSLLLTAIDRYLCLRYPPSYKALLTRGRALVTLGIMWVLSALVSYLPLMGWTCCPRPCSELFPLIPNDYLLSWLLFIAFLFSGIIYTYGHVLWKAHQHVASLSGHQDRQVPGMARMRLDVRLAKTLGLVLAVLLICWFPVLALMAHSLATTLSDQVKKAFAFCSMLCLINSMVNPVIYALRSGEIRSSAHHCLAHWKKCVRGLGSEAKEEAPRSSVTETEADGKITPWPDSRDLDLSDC

The target in the first test is Cannabinoid receptor 1 (Rattus norvegicus, UniProt P20272). Briefly: Inhibition of cannabinoid CB1 receptor in Sprague-Dawley rat brain.
Cannabinoid receptor 1, sequence (P20272 whole entry): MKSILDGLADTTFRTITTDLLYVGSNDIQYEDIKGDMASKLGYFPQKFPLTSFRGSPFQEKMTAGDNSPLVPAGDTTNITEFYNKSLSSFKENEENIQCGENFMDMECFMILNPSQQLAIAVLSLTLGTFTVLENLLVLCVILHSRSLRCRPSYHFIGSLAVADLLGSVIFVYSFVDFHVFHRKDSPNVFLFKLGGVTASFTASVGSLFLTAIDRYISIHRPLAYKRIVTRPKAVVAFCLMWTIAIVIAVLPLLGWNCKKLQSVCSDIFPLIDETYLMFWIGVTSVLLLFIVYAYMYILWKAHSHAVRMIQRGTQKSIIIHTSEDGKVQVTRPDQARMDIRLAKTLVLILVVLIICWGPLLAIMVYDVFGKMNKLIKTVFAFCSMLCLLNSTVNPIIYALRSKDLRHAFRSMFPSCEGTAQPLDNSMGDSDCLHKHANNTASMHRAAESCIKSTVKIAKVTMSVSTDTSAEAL
Take `CCn1nnc(-c2nn(-c3ccc(Cl)cc3Cl)c(-c3ccc(Cl)cc3)c2C)n1`: the IC50 was greater than 1000 nM.
The same measure, in the same setting: the value for `Cc1c(-c2nnnn2C(C)(C)C)nn(-c2ccc(Cl)cc2Cl)c1-c1ccc(Cl)cc1` was 361 nM; that for `CCCCn1nnc(-c2nn(-c3ccc(Cl)cc3Cl)c(-c3ccc(Cl)cc3)c2C)n1` was 87.7 nM.
On the same count and under the same terms, the value for `CCCCCCCCn1nnc(-c2nn(-c3ccc(Cl)cc3Cl)c(-c3ccc(Cl)cc3)c2C)n1` was 50.6 nM; that for `Cc1c(-c2nnnn2-c2ccccc2)nn(-c2ccc(Cl)cc2Cl)c1-c1ccc(Cl)cc1` was 33.8 nM; that for `Cc1c(-c2nnnn2Cc2ccccc2)nn(-c2ccc(Cl)cc2Cl)c1-c1ccc(Cl)cc1` was 94.3 nM.
The same measure, in the same setting: the value for `Cc1c(-c2nnnn2C2CCCCCC2)nn(-c2ccc(Cl)cc2Cl)c1-c1ccc(Cl)cc1` was 26.7 nM; that for `CCCCn1nnnc1-c1nn(-c2ccc(Cl)cc2Cl)c(-c2ccc(Cl)cc2)c1C` was 87.8 nM.
`Cc1c(-c2nnn(C)n2)nn(-c2ccc(Cl)cc2Cl)c1-c1ccc(Cl)cc1` came in with an IC50 greater than 1000 nM.
Compound `Cc1c(-c2nnnn2C)nn(-c2ccc(Cl)cc2Cl)c1-c1ccc(Cl)cc1` gave an IC50 of 1060 nM.
`CCCCCCCCn1nnnc1-c1nn(-c2ccc(Cl)cc2Cl)c(-c2ccc(Cl)cc2)c1C`: the IC50 is 47.3 nM.

Another test addresses Cannabinoid receptor 2 (Homo sapiens, UniProt P34972). The test is described as follows: Displacement of [3H]WIN-55212-2 from human cannabinoid CB2 receptor expressed in CHO cells. Type of test: cell-based.
`Cc1c(-c2nnnn2C2CCCCCC2)nn(-c2ccc(Cl)cc2Cl)c1-c1ccc(Br)cc1` showed a half-inhibitory concentration (IC50) greater than 10000 nM.
Still for that read-out and setting: the value for `Cc1c(-c2nnnn2C2CCCC2)nn(-c2ccc(Cl)cc2Cl)c1-c1ccc(Cl)cc1` was greater than 10000 nM; that for `Cc1c(-c2nnnn2C2CCCC2)nn(-c2ccc(Cl)cc2Cl)c1-c1ccc(Br)cc1` was 4240 nM.
On the same count and under the same terms, the value for `CCc1c(-c2nnnn2C2CCCC2)nn(-c2ccc(Cl)cc2Cl)c1-c1ccc(Cl)cc1` was 840 nM.
On the same count and under the same terms, to `Cc1c(-c2nnnn2C2CCCCCC2)nn(-c2ccc(Cl)cc2Cl)c1-c1ccc(Cl)cc1` belongs 818 nM; to `CCc1c(-c2nnnn2C2CCCC2)nn(-c2ccc(Cl)cc2Cl)c1-c1ccc(Br)cc1`, 1930 nM.

Test system in a further test: not listed separately
The test is described as follows: Selectivity ratio of IC50 for Sprague-Dawley rat CB1 receptor over IC50 for human CB2 receptor.
Regarding `Cc1c(-c2nnnn2C2CCCC2)nn(-c2ccc(Cl)cc2Cl)c1-c1ccc(Br)cc1`, the Ratio IC50 turned out to be 366.

As a reminder, the IC50 is the concentration that inhibits the measured activity by half.
